Measurements from ChEMBL document CHEMBL5370591, “A Potent and Narrow-Spectrum Antibacterial against Clostridioides difficile Infection” (J Med Chem, 2023).
Values after ≈ are worked out from the molar mass of the structure shown. Active and inactive are the calls of the source. No cut-off for these calls is given here.

Legend:
[1] = test system: Clostridioides difficile; test: Antibacterial activity against Clostridium difficile ATCC 43255 measured after 48 hrs by two fold serial dilution method; format: functional
[2] = test system: Clostridioides difficile; test: Antibacterial activity against Clostridium difficile 24531 clinical isolate assessed as inhibition of bacterial growth measured after 48 hrs by two fold serial dilution method; format: functional
[3] = test system: Escherichia coli; test: Antibacterial activity against Escherichia coli ATCC25922 assessed as inhibition of bacterial growth measured after 48 hrs by two fold serial dilution method; format: functional
[4] = test system: Clostridioides difficile; test: Antibacterial activity against Clostridium difficile ATCC 43255 assessed as log reduction in bacterial growth at 1 to 8 times MIC measured upto 48 hrs under anaerobic condition; format: functional
[5] = test system: Clostridioides difficile; test: Bactericidal activity against Clostridium difficile ATCC 43255 incubated for 48 hrs under anaerobic conditions; format: functional
[6] = test system: Clostridioides difficile; test: Induction of resistance against Clostridium difficile ATCC 43255 assessed as fold increase in MIC measured after 14 passages under anaerobic conditions; format: functional
[7] = test system: Lactobacillus gasseri; test: Antibacterial activity against Lactobacillus gasseri HM-644 assessed as inhibition of bacterial growth measured after 48 hrs by two fold serial dilution method; format: functional
[8] = test system: Streptococcus pyogenes; test: Antibacterial activity against Streptococcus pyogenes ATCC 49399 assessed as inhibition of bacterial growth measured after 48 hrs by two fold serial dilution method; format: functional
[9] = test system: Enterococcus faecalis; test: Antibacterial activity against vancomycin resistant Enterococcus faecalis 99 clinical isolate assessed as inhibition of bacterial growth measured after 48 hrs by two fold serial dilution method; format: functional
[10] = Selectivity ratio of IC50 for human HepG2 cells to MIC for Clostridium difficile ATCC 43255; format: toxicity
[11] = test system: Clostridioides difficile; test: Antibacterial activity against Clostridium difficile NR49302 isolated from human feces assessed as inhibition of bacterial growth measured after 48 hrs by two fold serial dilution method; format: functional
[12] = test system: Corynebacterium sp.; test: Antibacterial activity against Corynebacterium sp. HM-784 assessed as inhibition of bacterial growth measured after 48 hrs by two fold serial dilution method; format: functional
[13] = test system: Pseudomonas aeruginosa; test: Antibacterial activity against Pseudomonas aeruginosa ATCC27853 assessed as inhibition of bacterial growth measured after 48 hrs by two fold serial dilution method; format: functional
[14] = test system: Klebsiella aerogenes; test: Antibacterial activity against Klebsiella aerogenes ATCC35029 assessed as inhibition of bacterial growth measured after 48 hrs by two fold serial dilution method; format: functional
[15] = test system: HepG2; test: Antiproliferative activity against human HepG2 cells assessed as inhibition of cell growth by XTT assay; format: functional, cell-based
[16] = test system: Staphylococcus aureus; test: Antibacterial activity against methicillin/oxacillin/tetracycline resistant vancomycin resistant Staphylococcus aureus NRS100 assessed as inhibition of bacterial growth measured after 48 hrs by two fold serial dilution method; format: functional
[17] = test system: Staphylococcus haemolyticus; test: Antibacterial activity against Staphylococcus haemolyticus ATCC 29970 assessed as inhibition of bacterial growth measured after 48 hrs by two fold serial dilution method; format: functional
[18] = test system: Bacteroides fragilis; test: Antibacterial activity against Bacteroides fragilis HM-709 assessed as inhibition of bacterial growth measured after 48 hrs by two fold serial dilution method; format: functional
[19] = test system: Clostridioides difficile; test: Antibacterial activity against Clostridium difficile NR49318 isolated from human feces assessed as inhibition of bacterial growth measured after 48 hrs by two fold serial dilution method; format: functional
[20] = test system: Clostridioides difficile; test: Antibacterial activity against Clostridium difficile NR49294 isolated from human feces assessed as inhibition of bacterial growth measured after 48 hrs by two fold serial dilution method; format: functional
[21] = test system: Clostridioides difficile; test: Antibacterial activity against Clostridium difficile ATCC 43255 isolated from abdominal wound assessed as inhibition of bacterial growth measured after 48 hrs by two fold serial dilution method; format: functional
[22] = test system: Clostridioides difficile; test: Antibacterial activity against Clostridium difficile BAA-1870 assessed as inhibition of bacterial growth measured after 48 hrs by two fold serial dilution method; format: functional
[23] = test system: Clostridioides difficile; test: Antibacterial activity against Clostridium difficile ATCC 43255 assessed as as time duration of post-antibiotic effect for suppression of bacterial growth at 1 time MIC incubated for 1 hr in broth solution; format: functional
[24] = test system: Clostridioides difficile; test: Antibacterial activity against Clostridium difficile BAA-1803 clinical isolate assessed as inhibition of bacterial growth measured after 48 hrs by two fold serial dilution method; format: functional
[25] = Selectivity ratio of MBC for bactericidal activity against Clostridium difficile ATCC 43255 to MIC for antibacterial activity for Clostridium difficile ATCC 43255; format: functional, Clostridioides difficile
[26] = test system: Klebsiella pneumoniae; test: Antibacterial activity against Klebsiella pneumoniae ATCC700603 assessed as inhibition of bacterial growth measured after 48 hrs by two fold serial dilution method; format: functional
[27] = test system: Staphylococcus aureus; test: Antibacterial activity against ciprofloxacin/gentamicin/oxacillin/pencillin/linezolid resistant Staphylococcus aureus NRS119 assessed as inhibition of bacterial growth measured after 48 hrs by two fold serial dilution method; format: functional
[28] = test system: Clostridioides difficile; test: Antibacterial activity against Clostridium difficile 26675 clinical isolate assessed as inhibition of bacterial growth measured after 48 hrs by two fold serial dilution method; format: functional
[29] = test system: Clostridioides difficile; test: Antibacterial activity against Clostridium difficile NR49310 isolated from human feces assessed as inhibition of bacterial growth measured after 48 hrs by two fold serial dilution method; format: functional
[30] = test system: Clostridioides difficile; test: Antibacterial activity against Clostridium difficile ATCC 43255 assessed as as time duration of post-antibiotic effect for suppression of bacterial growth at 2 times MIC incubated for 1 hr in broth solution; format: functional
[31] = test system: Eubacterium sp.; test: Antibacterial activity against Eubacterium sp. HM-178 assessed as inhibition of bacterial growth measured after 48 hrs by two fold serial dilution method; format: functional
[32] = test system: Clostridioides difficile; test: Antibacterial activity against Clostridium difficile NR49292 assessed as inhibition of bacterial growth measured after 48 hrs by two fold serial dilution method; format: functional
[33] = test system: Clostridioides difficile; test: Induction of resistance against Clostridium difficile ATCC 43255 assessed as fold increase in MIC measured after 8 passages under anaerobic conditions; format: functional
[34] = test system: Clostridioides difficile; test: Antibacterial activity against Clostridium difficile ATCC 43255 assessed as as time duration of post-antibiotic effect for suppression of bacterial growth at 8 times MIC incubated for 1 hr in broth solution; format: functional
[35] = test system: Clostridioides difficile; test: Antibacterial activity against Clostridium difficile NR49305 isolated from human feces assessed as inhibition of bacterial growth measured after 48 hrs by two fold serial dilution method; format: functional
[36] = test system: Clostridioides difficile; test: Antibacterial activity against Clostridium difficile 23828 clinical isolate assessed as inhibition of bacterial growth measured after 48 hrs by two fold serial dilution method; format: functional
[37] = test system: Limosilactobacillus reuteri; test: Antibacterial activity against Lactobacillus reuteri HM-102 assessed as inhibition of bacterial growth measured after 48 hrs by two fold serial dilution method; format: functional
[38] = test system: THP-1; test: Cytotoxicity against human THP-1 cells assessed as increase in LDH release incubate for 24 hrs by trypan-blue staining based analysis; format: functional, cell-based; conditions: THP-1, 24 h
[39] = test system: Clostridioides difficile; test: Antibacterial activity against Clostridium difficile ATCC 43255 assessed as damage in cell wall at 8 time MIC incubated for 24 hrs by scanning electron microscopy based analysis; format: functional, organism-based
[40] = test system: Clostridioides difficile; test: Induction of resistance against Clostridium difficile ATCC 43255 assessed as fold increase in MIC measured after 20 passages under anaerobic conditions; format: functional
[41] = test system: Enterococcus faecium; test: Antibacterial activity against vancomycin resistant Enterococcus faecium 106 clinical isolate assessed as inhibition of bacterial growth measured after 48 hrs by two fold serial dilution method; format: functional
[42] = test system: Enterococcus faecium; test: Antibacterial activity against vancomycin susceptible Enterococcus faecium119-39A clinical isolate assessed as inhibition of bacterial growth measured after 48 hrs by two fold serial dilution method; format: functional; conditions: 119-39A
[43] = test system: Clostridioides difficile; test: Antibacterial activity against Clostridium difficile ATCC 43255 assessed as as time duration of post-antibiotic effect for suppression of bacterial growth at 4 times MIC incubated for 1 hr in broth solution; format: functional
[44] = Selectivity ratio of IC50 for human THP-1 cells to MIC for Clostridium difficile ATCC 43255; format: toxicity
[45] = test system: Acinetobacter baumannii; test: Antibacterial activity against Acinetobacter baumannii ATCC17961 assessed as inhibition of bacterial growth measured after 48 hrs by two fold serial dilution method; format: functional

Compound: O=[N+]([O-])c1c[nH]c(-c2nc(-c3ccc(OC4CCCC4)cc3)no2)n1
- MIC [1]: 0.25 µg/mL (≈ 0.732 µM)
- MIC [2]: 0.125 µg/mL (≈ 0.366 µM)
- MIC [3]: > 128 µg/mL
- Activity [4]: 4 log10CFU/ml
- MBC [5]: 0.5 µg/mL (≈ 1.46 µM)
- fold change (FC) [6]: 4
- MIC [7]: > 128 µg/mL
- MIC [8]: > 128 µg/mL
- MIC [9]: 128 µg/mL (≈ 375 µM)
- selectivity ratio [10]: 214
- MIC [11]: 0.25 µg/mL (≈ 0.732 µM)
- MIC [12]: > 128 µg/mL
- MIC [13]: > 128 µg/mL
- MIC [14]: > 128 µg/mL
- IC50 [15]: 53.4 µg/mL (≈ 156 µM)
- MIC [16]: 64 µg/mL (≈ 188 µM)
- MIC [17]: 32 µg/mL (≈ 93.8 µM)
- MIC [18]: 128 µg/mL (≈ 375 µM)
- MIC [19]: 0.5 µg/mL (≈ 1.46 µM)
- MIC [20]: 0.5 µg/mL (≈ 1.46 µM)
- MIC [21]: 0.25 µg/mL (≈ 0.732 µM)
- MIC [22]: 0.125 µg/mL (≈ 0.366 µM)
- Time [23]: 3 h
- MIC [24]: 0.125 µg/mL (≈ 0.366 µM)
- Ratio [25]: 2
- MIC [26]: > 128 µg/mL
- MIC [27]: 32 µg/mL (≈ 93.8 µM)
- MIC [28]: 2 µg/mL (≈ 5.86 µM)
- MIC [29]: 0.25 µg/mL (≈ 0.732 µM)
- Time [30]: 5 h
- MIC [31]: 64 µg/mL (≈ 188 µM)
- MIC [32]: 0.125 µg/mL (≈ 0.366 µM)
- fold change (FC) [33]: 2
- Time [34]: 7 h
- MIC [35]: 0.125 µg/mL (≈ 0.366 µM)
- MIC [36]: 1 µg/mL (≈ 2.93 µM)
- MIC [37]: > 128 µg/mL
- IC50 [38]: > 128 µg/mL
- Activity [39]: Active
- fold change (FC) [40]: 8
- MIC [41]: 128 µg/mL (≈ 375 µM)
- MIC [42]: 128 µg/mL (≈ 375 µM)
- Time [43]: 7 h
- selectivity ratio [44]: > 512
- MIC [45]: > 128 µg/mL
